From US20240132480A1, “INHIBITORS OF MYCOBACTERIUM TUBERCULOSIS LIPOAMIDE DEHYDROGENASE” (Cornell University, priority 2021, published 2024)
Read-outs that look alike come from different tables or passages of the source.

Experiments:
[1] = microsomes
[2] = target: Mtb Lpd (Mycobacterium tuberculosis (strain ATCC 25618 / H37Rv), UniProt P9WHH9); assay type: biochemical
[3] = 30 min preincubation, read-out: LPD IC50 (μM) w/ 30 min preincubation

Compound | Human Liver Microsome Stability [1] | IC50 ([2]; read-out: LPD IC50) | IC50 [2, 3]
Cc1cc(S(=O)(=O)N(C)CC(=O)Nc2ccc3c(c2)OC(C)(C)C(=O)N3C)c2n[nH]cc2c1 [Example 159] | 67 µL/min/mg | 0.019 µM | –
Cc1cc(S(=O)(=O)N(C)CC(=O)Nc2ccc3c(c2)OCCN3C2COC2)c2n[nH]c(F)c2c1 [Example 140] | 66 µL/min/mg | 0.0278 µM | –
COc1ccc(CNC(=O)CN(C)S(=O)(=O)c2cc(C)cc3c[nH]nc23)cc1 [Example 51] | 70 µL/min/mg | 0.049 µM | –
Cc1cc(S(=O)(=O)N2CC[C@H]2C(=O)Nc2ccc3ncccc3c2)c2[nH]ncc2c1 [Example 87] | 111 µL/min/mg | 0.035 µM | –
Cc1cc(S(=O)(=O)N(C)CC(=O)Nc2ccn(C3COC3)c(=O)c2)c2[nH]ncc2c1 [Example 99] | 17 µL/min/mg | 0.056 µM | –
Cc1cc(S(=O)(=O)N2CC[C@H]2C(=O)Nc2ccc3c(c2)N(C2COC2)CCO3)c2[nH]c(C#N)cc2c1 [Example 209] | 212 µL/min/mg | – | 0.033 µM
O=C(Nc1ccc2c(c1)OCCN2C1CCOCC1)[C@@H]1CCN1S(=O)(=O)c1cc(Cl)cc2c(F)n[nH]c12 [Example 162] | 91 µL/min/mg | 0.059 µM | –
CC(=O)Nc1cccc(NC(=O)CN(C)S(=O)(=O)c2cc(C)cc3cc(C#N)[nH]c23)c1 [Example 217] | 177 µL/min/mg | – | 0.028 µM
Cc1cc(S(=O)(=O)N2CC[C@H]2C(=O)Nc2ccc3c(c2)OCCN3C)c2[nH]ncc2c1 [Example 40] | 78 µL/min/mg | 0.03 µM | –
Cc1cc(S(=O)(=O)N(C)CC(=O)Nc2ccn(C)c(=O)c2)c2[nH]ncc2c1F [Example 43, 2-((4-fluoro-N,5-dimethyl-1H-indazole)-7-sulfonamido)-N-(1-methyl-2-oxo-1,2-dihydropyridin-4-yl)acetamide] | 42 µL/min/mg | 0.0498 µM | –
CCCCNC(=O)CN(C)S(=O)(=O)c1cc(C)cc2cc(C#N)[nH]c12 [Example 223] | 62 µL/min/mg | – | 0.028 µM
Cc1cc(S(=O)(=O)N(C)CC(=O)Nc2ccc3c(c2)N(C2CCOCC2)CCO3)c2[nH]ncc2c1 [Example 163] | 94 µL/min/mg | 0.031 µM | –
Cc1cc(S(=O)(=O)N2CC[C@H]2C(=O)NCC#Cc2ccccc2)c2[nH]ncc2c1 [Example 205] | 205 µL/min/mg | 0.154 µM | –
Cc1cc(S(=O)(=O)N2CC[C@H]2C(=O)Nc2ccc3cccnc3c2)c2[nH]ncc2c1 [Example 106] | 236 µL/min/mg | 0.019 µM | –
Cc1cc(S(=O)(=O)N(C)CC(=O)Nc2ccc3c(c2)N(C2COC2)CCO3)c2[nH]c(C#N)cc2c1 [Example 208] | 341 µL/min/mg | – | 0.015 µM
Cc1cc(S(=O)(=O)N(C)CC(=O)NCC#Cc2ccccc2)c2[nH]c(C#N)cc2c1 [Example 218] | 191 µL/min/mg | – | 0.03 µM
O=C(Nc1ccc2c(c1)OCCN2C1CCOCC1)[C@@H]1CCN1S(=O)(=O)c1cc(Cl)cc2cn[nH]c12 [Example 161] | 121 µL/min/mg | 0.033 µM | –
Cc1cc(S(=O)(=O)N(C)CC(=O)Nc2ccc(N3CCOCC3)c(C)c2)c2[nH]ncc2c1 [Example 32] | 234 µL/min/mg | 0.0043 µM | –
Cc1cc(S(=O)(=O)N(C)CC(=O)Nc2ccc3ncccc3c2)c2n[nH]cc2c1 [Example 52] | 113 µL/min/mg | 0.0218 µM | –
CN(CC(=O)Nc1ccc2c(c1)OCCN2C1CCOCC1)S(=O)(=O)c1cc(C2(O)CC2)cc2cn[nH]c12 [Example 174] | 131 µL/min/mg | 0.55 µM | –
COc1ccc(NC(=O)[C@@H]2CCN2S(=O)(=O)c2cc(C)cc3cn[nH]c23)cc1Cl [Example 74] | 325 µL/min/mg | 0.0488 µM | –

Compound | Human Liver Microsome Stability [1] | IC50 ([2]; read-out: LPD IC50) | IC50 [2, 3]
CCc1ccc(NC(=O)CN(C)S(=O)(=O)c2cc(C)cc3cc(C#N)[nH]c23)cc1Cl [Example 212] | 210 µL/min/mg | – | 0.035 µM
Cc1cc(S(=O)(=O)N2CCC[C@@H](C(=O)Nc3ccc4c(c3)OCCN4C3COC3)C2)c2[nH]ncc2c1 [Example 170, N-1-((5-methyl-1H-indazol-7-yl)sulfonyl)-N-(4-(oxetan-3-yl)-3,4-dihydro-2H-benzo[b][1,4]oxazin-7-yl)piperidine-3-carboxamide] | 34 µL/min/mg | 0.051 µM | –
Cc1cc(S(=O)(=O)N2CC[C@H]2C(=O)Nc2ccn(C)c(=O)c2)c2[nH]nc(Cl)c2c1 [Example 178] | -13 µL/min/mg | 0.211 µM | –
Cc1cc(S(=O)(=O)N(C)CC(=O)Nc2ccc3c(c2)OCCN3C(C)(C)CO)c2[nH]ncc2c1 [Example 105] | 56 µL/min/mg | 0.027 µM | –
Cc1cc(S(=O)(=O)N2CC[C@H]2C(=O)Nc2ccc(N3CCN(C)CC3)c(Cl)c2)c2[nH]ncc2c1 [Example 153, (S)—N-(3-chloro-4-(4-methylpiperazin-1-yl)phenyl)-1-((5-methyl-1H-indazol-7-yl)sulfonyl)azetidine-2-carboxamide] | 113 µL/min/mg | 0.048 µM | –
Cc1cc(S(=O)(=O)N2CC[C@H]2C(=O)Nc2ccc3c(c2)N(C)CCO3)c2[nH]ncc2c1 [Example 41] | 197 µL/min/mg | 0.0356 µM | –
Cc1cc(S(=O)(=O)N(C)CC(=O)Nc2ccn(C(C)C)c(=O)c2)c2[nH]ncc2c1 [Example 16] | 35 µL/min/mg | 0.0508 µM | –
CC#CC(C)(C)NC(=O)CN(C)S(=O)(=O)c1cc(C)cc2cc(C#N)[nH]c12 [Example 229] | 160 µL/min/mg | – | 0.031 µM
Cc1cc(S(=O)(=O)N(C)CC(=O)Nc2ccc(C3CCN(C)CC3)c(Cl)c2)c2[nH]ncc2c1 [Example 194] | 35 µL/min/mg | 0.073 µM | –
Cc1cc(S(=O)(=O)N2CC[C@H]2C(=O)Nc2ccc3c(c2)OCCN3C2COC2)c2n[nH]cc2c1 [Example 143] | 84 µL/min/mg | 0.0362 µM | –
Cc1cc(S(=O)(=O)N2CC[C@H]2C(=O)Nc2ccc3c(c2)OCCO3)c2[nH]ncc2c1 [Example 39] | 76 µL/min/mg | 0.0237 µM | –
Cc1cc(S(=O)(=O)N(C)CC(=O)Nc2ccc3nccn3c2)c2n[nH]cc2c1 [Example 48] | 36 µL/min/mg | 0.0421 µM | –
Cc1cc(S(=O)(=O)N(C)CC(=O)Nc2ccn(C)c(=O)c2)c2[nH]c(C#N)cc2c1 [Example 124, 2-((2-cyano-N,5-dimethyl-1H-indole)-7-sulfonamido)-N-(1-methyl-2-oxo-1,2-dihydropyridin-4-yl)acetamide] | 51 µL/min/mg | 0.0796 µM | –
Cn1ccc(NC(=O)[C@@H]2CCN2S(=O)(=O)c2cc(Cl)cc3cn[nH]c23)cc1=O [Example 149] | 14 µL/min/mg | 0.061 µM | –
COCc1n[nH]c2c(S(=O)(=O)N(C)CC(=O)Nc3ccc(OC)c(C)c3)cc(C)cc12 [Example 28] | >768 µL/min/mg | 3640 µM | –
Cc1cc(S(=O)(=O)N(C)CC(=O)Nc2ccc3cnccc3c2)c2n[nH]cc2c1 [Example 57] | 59 µL/min/mg | 0.0328 µM | –
Cc1cc(S(=O)(=O)N2CC[C@H]2C(=O)Nc2ccn(C)c(=O)c2)c2[nH]c(C#N)cc2c1 [Example 187, (S)-1-((2-cyano-5-methyl-1H-indol-7-yl)sulfonyl)-N-(1-methyl-2-oxo-1,2-dihydropyridin-4-yl)azetidine-2-carboxamide] | -2 µL/min/mg | 0.135 µM | –
Cc1cc(S(=O)(=O)N2CC[C@H]2C(=O)Nc2ccn(C)c(=O)c2)c2[nH]ncc2c1 [Example 27, (S)-1-((5-methyl-1H-indazol-7-yl)sulfonyl)-N-(1-methyl-2-oxo-1,2-dihydropyridin-4-yl)azetidine-2-carboxamide] | -8 µL/min/mg | 0.0545 µM | –
Cc1cc(S(=O)(=O)N(C)CC(=O)Nc2ccc3c(c2)OCCN3C2COC2)c2[nH]ncc2c1 [Example 94] | 45 µL/min/mg | 0.0275 µM | –
CN(CC(=O)Nc1ccc2c(c1)OCCN2C1CCOCC1)S(=O)(=O)c1cc(Cl)cc2c(F)n[nH]c12 [Example 165] | 162 µL/min/mg | 0.037 µM | –
Cc1cc(S(=O)(=O)N2CC[C@H]2C(=O)Nc2ccc3ccncc3c2)c2[nH]ncc2c1 [Example 71] | 132 µL/min/mg | 0.0513 µM | –
